Experimental data from patent US6358885B1, “Substituted phenylheterocyclic herbicides” (Mississippi State University, priority 1992, dated 2002).

Tests used:
Assay in all cases: Test B preemergence/postemergence greenhouse plant response rating 0 to 10
[1] = tested on: barley; assay type: in vivo, Hordeum vulgare; details: for Plant response rating, Barley: 0 to 10 scale
Procedure, shortened: (§1)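 Planted seeds are treated preemergence with compound dissolved in a non-phytotoxic solvent, while postemergence applications go onto plants of two to eighteen cm. Plants stay in the greenhouse twelve to sixteen days and are then rated visually relative to controls.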

[2] = tested on: barnyardgrass; assay type: in vivo, Echinochloa crus-galli; details: for Plant response rating, Barnyardgrass: 0 to 10 scale
Procedure, shortened: as §1

[3] = tested on: bedstraw; assay type: in vivo, Galium aparine; details: for Plant response rating, Bedstraw: 0 to 10 scale
Procedure, shortened: as §1

[4] = tested on: blackgrass; assay type: in vivo, Alopecurus myosuroides; details: for Plant response rating, Blackgrass: 0 to 10 scale
Procedure, shortened: as §1

[5] = tested on: cheatgrass; assay type: in vivo, Bromus secalinus; details: for Plant response rating, Cheatgrass: POSTEMERGENCE, 0 to 10 scale
Procedure, shortened: as §1

[6] = tested on: chickweed; assay type: in vivo, Stellaria media; details: for Plant response rating, Chickweed: 0 to 10 scale
Procedure, shortened: as §1

[7] = tested on: cocklebur; assay type: in vivo, Xanthium pensylvanicum; details: for Plant response rating, Cocklebur: 0 to 10 scale
Procedure, shortened: as §1

[8] = tested on: corn; assay type: in vivo, Zea mays; details: for Plant response rating, Corn: 0 to 10 scale
Procedure, shortened: as §1

[9] = tested on: cotton; assay type: in vivo, Gossypium hirsutum; details: for Plant response rating, Cotton: 0 to 10 scale
Procedure, shortened: as §1

[10] = tested on: crabgrass; assay type: in vivo, Digitaria spp.; details: for Plant response rating, Crabgrass: 0 to 10 scale
Procedure, shortened: as §1

[11] = tested on: giant foxtail; assay type: in vivo, Setaria faberii; details: for Plant response rating, Giant foxtail: 0 to 10 scale
Procedure, shortened: as §1

[12] = tested on: lambsquarters; assay type: in vivo, Chenopodium album; details: for Plant response rating, Lambsquarter: 0 to 10 scale
Procedure, shortened: as §1

[13] = tested on: morningglory; assay type: in vivo, Ipomoea hederacea; details: for Plant response rating, Morningglory: 0 to 10 scale
Procedure, shortened: as §1

[14] = tested on: rape; assay type: in vivo, Brassica napus; details: for Plant response rating, Rape: 0 to 10 scale
Procedure, shortened: as §1

[15] = tested on: rice; assay type: in vivo, Oryza sativa; details: for Plant response rating, Rice: 0 to 10 scale
Procedure, shortened: as §1

[16] = tested on: sorghum; assay type: in vivo, Sorghum bicolor; details: for Plant response rating, Sorghum: 0 to 10 scale
Procedure, shortened: as §1

[17] = tested on: soybean; assay type: in vivo, Glycine max; details: for Plant response rating, Soybean: 0 to 10 scale
Procedure, shortened: as §1

[18] = tested on: sugar beet; assay type: in vivo, Beta vulgaris; details: for Plant response rating, Sugar beet: 0 to 10 scale
Procedure, shortened: as §1

[19] = tested on: velvetleaf; assay type: in vivo, Abutilon theophrasti; details: for Plant response rating, Velvetleaf: 0 to 10 scale
Procedure, shortened: as §1

[20] = tested on: wheat; assay type: in vivo, Triticum aestivum; details: for Plant response rating, Wheat: 0 to 10 scale
Procedure, shortened: as §1

[21] = tested on: wild buckwheat; assay type: in vivo, Polygonum convolvulus; details: for Plant response rating, Wild buckwheat: 0 to 10 scale
Procedure, shortened: as §1

[22] = tested on: wild oat; assay type: in vivo, Avena fatua; details: for Plant response rating, Wild oat: 0 to 10 scale
Procedure, shortened: as §1

[23] = tested on: purple nutsedge; assay type: in vivo, Cyperus rotundus; details: for Plant response rating, Nutsedge: 0 to 10 scale
Procedure, shortened: as §1

Oc1cc(-c2nn3c(c2Cl)CCCC3)c(Cl)cc1Cl [Compound 68]
Plant response rating, Barley ([1]; POSTEMERGENCE, Rate 50 g/ha): 3
Plant response rating, Barley ([1]; PREEMERGENCE, Rate 50 g/ha): 0
Plant response rating (0 to 10 scale), Barley ([1]; PREEMERGENCE, Rate 200 g/ha): 0
Plant response rating, Barley ([1]; Rate 200 g/ha, POSTEMERGENCE): 3
Plant response rating, Barnyardgrass ([2]; POSTEMERGENCE, Rate 50 g/ha): 2
Plant response rating, Barnyardgrass ([2]; PREEMERGENCE, Rate 50 g/ha): 0
Plant response rating (0 to 10 scale), Barnyardgrass ([2]; PREEMERGENCE, Rate 200 g/ha): 0
Plant response rating, Barnyardgrass ([2]; Rate 200 g/ha, POSTEMERGENCE): 3
Plant response rating, Bedstraw ([3]; POSTEMERGENCE, Rate 50 g/ha): 7
Plant response rating, Bedstraw ([3]; PREEMERGENCE, Rate 50 g/ha): 0
Plant response rating (0 to 10 scale), Bedstraw ([3]; PREEMERGENCE, Rate 200 g/ha): 2
Plant response rating, Bedstraw ([3]; Rate 200 g/ha, POSTEMERGENCE): 9
Plant response rating, Blackgrass ([4]; POSTEMERGENCE, Rate 50 g/ha): 2
Plant response rating, Blackgrass ([4]; PREEMERGENCE, Rate 50 g/ha): 2
Plant response rating (0 to 10 scale), Blackgrass ([4]; PREEMERGENCE, Rate 200 g/ha): 8
Plant response rating, Blackgrass ([4]; Rate 200 g/ha, POSTEMERGENCE): 3
Plant response rating, Cheatgrass ([5]; Rate 50 g/ha): 2
Plant response rating (0 to 10 scale), Cheatgrass ([5]; PREEMERGENCE, Rate 200 g/ha): 3
Plant response rating, Cheatgrass ([5]; Rate 200 g/ha): 3
Plant response rating, Chickweed ([6]; POSTEMERGENCE, Rate 50 g/ha): 0
Plant response rating, Chickweed ([6]; PREEMERGENCE, Rate 50 g/ha): 2
Plant response rating (0 to 10 scale), Chickweed ([6]; PREEMERGENCE, Rate 200 g/ha): 2
Plant response rating, Chickweed ([6]; Rate 200 g/ha, POSTEMERGENCE): 1
Plant response rating, Cocklebur ([7]; POSTEMERGENCE, Rate 50 g/ha): 6
Plant response rating, Cocklebur ([7]; PREEMERGENCE, Rate 50 g/ha): 0
Plant response rating (0 to 10 scale), Cocklebur ([7]; PREEMERGENCE, Rate 200 g/ha): 0
Plant response rating, Cocklebur ([7]; Rate 200 g/ha, POSTEMERGENCE): 7
Plant response rating, Corn ([8]; POSTEMERGENCE, Rate 50 g/ha): 3
Plant response rating, Corn ([8]; PREEMERGENCE, Rate 50 g/ha): 0
Plant response rating (0 to 10 scale), Corn ([8]; PREEMERGENCE, Rate 200 g/ha): 0
Plant response rating, Corn ([8]; Rate 200 g/ha, POSTEMERGENCE): 4
Plant response rating, Cotton ([9]; POSTEMERGENCE, Rate 50 g/ha): 10
Plant response rating, Cotton ([9]; PREEMERGENCE, Rate 50 g/ha): 0
Plant response rating (0 to 10 scale), Cotton ([9]; PREEMERGENCE, Rate 200 g/ha): 0
Plant response rating, Cotton ([9]; Rate 200 g/ha, POSTEMERGENCE): 10
Plant response rating, Crabgrass ([10]; POSTEMERGENCE, Rate 50 g/ha): 3
Plant response rating, Crabgrass ([10]; PREEMERGENCE, Rate 50 g/ha): 0
Plant response rating (0 to 10 scale), Crabgrass ([10]; PREEMERGENCE, Rate 200 g/ha): 2
Plant response rating, Crabgrass ([10]; Rate 200 g/ha, POSTEMERGENCE): 4
Plant response rating, Giant foxtail ([11]; POSTEMERGENCE, Rate 50 g/ha): 4
Plant response rating, Giant foxtail ([11]; PREEMERGENCE, Rate 50 g/ha): 0
Plant response rating (0 to 10 scale), Giant foxtail ([11]; PREEMERGENCE, Rate 200 g/ha): 0
Plant response rating, Giant foxtail ([11]; Rate 200 g/ha, POSTEMERGENCE): 4
Plant response rating, Lambsquarter ([12]; POSTEMERGENCE, Rate 50 g/ha): 10
Plant response rating, Lambsquarter ([12]; PREEMERGENCE, Rate 50 g/ha): 6
Plant response rating (0 to 10 scale), Lambsquarter ([12]; PREEMERGENCE, Rate 200 g/ha): 0
Plant response rating, Lambsquarter ([12]; Rate 200 g/ha, POSTEMERGENCE): 10
Plant response rating, Morningglory ([13]; POSTEMERGENCE, Rate 50 g/ha): 8
Plant response rating, Morningglory ([13]; PREEMERGENCE, Rate 50 g/ha): 0
Plant response rating (0 to 10 scale), Morningglory ([13]; PREEMERGENCE, Rate 200 g/ha): 0
Plant response rating, Morningglory ([13]; Rate 200 g/ha, POSTEMERGENCE): 8
Plant response rating, Rape ([14]; POSTEMERGENCE, Rate 50 g/ha): 3
Plant response rating, Rape ([14]; PREEMERGENCE, Rate 50 g/ha): 0
Plant response rating (0 to 10 scale), Rape ([14]; PREEMERGENCE, Rate 200 g/ha): 0
Plant response rating, Rape ([14]; Rate 200 g/ha, POSTEMERGENCE): 5
Plant response rating, Rice ([15]; POSTEMERGENCE, Rate 50 g/ha): 5
Plant response rating, Rice ([15]; PREEMERGENCE, Rate 50 g/ha): 0
Plant response rating (0 to 10 scale), Rice ([15]; PREEMERGENCE, Rate 200 g/ha): 0
Plant response rating, Rice ([15]; Rate 200 g/ha, POSTEMERGENCE): 5
Plant response rating, Sorghum ([16]; POSTEMERGENCE, Rate 50 g/ha): 3
Plant response rating, Sorghum ([16]; PREEMERGENCE, Rate 50 g/ha): 0
Plant response rating (0 to 10 scale), Sorghum ([16]; PREEMERGENCE, Rate 200 g/ha): 0
Plant response rating, Sorghum ([16]; Rate 200 g/ha, POSTEMERGENCE): 4
Plant response rating, Soybean ([17]; POSTEMERGENCE, Rate 50 g/ha): 4
Plant response rating, Soybean ([17]; PREEMERGENCE, Rate 50 g/ha): 0
Plant response rating (0 to 10 scale), Soybean ([17]; PREEMERGENCE, Rate 200 g/ha): 0
Plant response rating, Soybean ([17]; Rate 200 g/ha, POSTEMERGENCE): 6
Plant response rating, Sugar beet ([18]; POSTEMERGENCE, Rate 50 g/ha): 9
Plant response rating, Sugar beet ([18]; PREEMERGENCE, Rate 50 g/ha): 0
Plant response rating (0 to 10 scale), Sugar beet ([18]; PREEMERGENCE, Rate 200 g/ha): 9
Plant response rating, Sugar beet ([18]; Rate 200 g/ha, POSTEMERGENCE): 10
Plant response rating, Velvetleaf ([19]; POSTEMERGENCE, Rate 50 g/ha): 8
Plant response rating, Velvetleaf ([19]; PREEMERGENCE, Rate 50 g/ha): 0
Plant response rating (0 to 10 scale), Velvetleaf ([19]; PREEMERGENCE, Rate 200 g/ha): 9
Plant response rating, Velvetleaf ([19]; Rate 200 g/ha, POSTEMERGENCE): 10
Plant response rating, Wheat ([20]; POSTEMERGENCE, Rate 50 g/ha): 3
Plant response rating, Wheat ([20]; PREEMERGENCE, Rate 50 g/ha): 0
Plant response rating (0 to 10 scale), Wheat ([20]; PREEMERGENCE, Rate 200 g/ha): 3
Plant response rating, Wheat ([20]; Rate 200 g/ha, POSTEMERGENCE): 4
Plant response rating, Wild buckwheat ([21]; POSTEMERGENCE, Rate 50 g/ha): 10
Plant response rating, Wild buckwheat ([21]; PREEMERGENCE, Rate 50 g/ha): 0
Plant response rating (0 to 10 scale), Wild buckwheat ([21]; PREEMERGENCE, Rate 200 g/ha): 4
Plant response rating, Wild buckwheat ([21]; Rate 200 g/ha, POSTEMERGENCE): 10
Plant response rating, Wild oat ([22]; POSTEMERGENCE, Rate 50 g/ha): 2
Plant response rating, Wild oat ([22]; PREEMERGENCE, Rate 50 g/ha): 0
Plant response rating (0 to 10 scale), Wild oat ([22]; PREEMERGENCE, Rate 200 g/ha): 0
Plant response rating, Wild oat ([22]; Rate 200 g/ha, POSTEMERGENCE): 3
Plant response rating, Nutsedge ([23]; POSTEMERGENCE, Rate 50 g/ha): 2
Plant response rating, Nutsedge ([23]; PREEMERGENCE, Rate 50 g/ha): 0
Plant response rating (0 to 10 scale), Nutsedge ([23]; PREEMERGENCE, Rate 200 g/ha): 0
Plant response rating, Nutsedge ([23]; Rate 200 g/ha, POSTEMERGENCE): 3
